In publication PMC3445454, “Broad and Cross-Clade CD4^+ T-Cell Responses Elicited by a DNA Vaccine Encoding Highly Conserved and Promiscuous HIV-1 M-Group Consensus Peptides” (PLoS ONE, 2012):
Positions count from the first letter of the chain named. Read-outs that look alike come from different tables or passages of the source.

Assays:
Assay in all cases: biochemical
[1] = target: T1, HLA-DP DPA1*02:01/DPB1*05:01 (Homo sapiens, UniProt P04440+P20036, A65V/A84E/F191V/F64L/G113D/G114E/K142R/L158P/M116V/M62Q/P115A/Q81R/R125K/T114A/T199I/T259P/V234M); assay type: binding
T1 sequence (P20036 29-260 A42M/M62Q/Q81R/T114A/K142R/L158P/F191V/T259P): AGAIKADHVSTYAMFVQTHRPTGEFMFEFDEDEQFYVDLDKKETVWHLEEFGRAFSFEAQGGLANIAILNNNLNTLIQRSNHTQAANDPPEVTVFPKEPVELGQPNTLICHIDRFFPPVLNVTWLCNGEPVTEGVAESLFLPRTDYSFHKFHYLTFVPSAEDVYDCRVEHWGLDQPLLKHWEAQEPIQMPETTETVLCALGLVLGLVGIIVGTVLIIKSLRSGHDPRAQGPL
T1 sequence (P04440 30-258 F64L/A65V/A84E/G113D/G114E/P115A/M116V/R125K/T199I/V234M): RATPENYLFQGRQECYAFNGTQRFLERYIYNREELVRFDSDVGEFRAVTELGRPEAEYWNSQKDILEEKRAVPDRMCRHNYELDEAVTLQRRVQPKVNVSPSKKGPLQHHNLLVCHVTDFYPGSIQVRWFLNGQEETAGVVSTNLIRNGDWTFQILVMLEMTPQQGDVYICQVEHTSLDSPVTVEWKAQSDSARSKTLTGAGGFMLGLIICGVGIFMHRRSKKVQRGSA

HLA-DR DRB1*13:02 = HLA-DR DRB1*13:02 (Homo sapiens, UniProt P01903+P01911, A100E/A169T/K41T/L162R/M171V/P40S/Q125H/Q178H/Q39Y/Q99D/R42S/S66N/T262R/V115G/W38E/Y61H); assay type: binding
[2] = target: T2, HLA-DP DPA1*01:03/DPB1*03:01 (Homo sapiens, UniProt P04440+P20036, A65V/A84D/A85E/E86D/F38Y/G113D/G114E/G40L/I94L/L37V/M105V/M116V/P115A/R125K/T199I); assay type: binding
T2 sequence (P20036 29-260): T1 sequence (P20036 29-260 A42M/M62Q/Q81R/T114A/K142R/L158P/F191V/T259P) with M14A, Q34M, R53Q, A86T, R114K, P130L, V163F, P231T
T2 sequence (P04440 30-258 L37V/F38Y/G40L/A65V/A84D/A85E/E86D/I94L/M105V/G113D/G114E/P115A/M116V/R125K/T199I): T1 sequence (P04440 30-258 F64L/A65V/A84E/G113D/G114E/P115A/M116V/R125K/T199I/V234M) with L8V, F9Y, G11L, L35F, E55D, A56E, E57D, I65L, M76V, M205V

[3] = target: T3, HLA-DP DPA1*01:03/DPB1*20:01 (Homo sapiens, UniProt P04440+P20036, A65V/A84D/A85E/E86D/F38Y/G113D/G114E/G40L/I94L/L37V/M116V/P115A/R125K/T199I); assay type: binding; details: read-out: Binding capacity/IC50 (nM) DPA1*01:03 DPB1*20:01
T3 sequence (P20036 29-260): T1 sequence (P20036 29-260 A42M/M62Q/Q81R/T114A/K142R/L158P/F191V/T259P) with M14A, Q34M, R53Q, A86T, R114K, P130L, V163F, P231T
T3 sequence (P04440 30-258 L37V/F38Y/G40L/A65V/A84D/A85E/E86D/I94L/G113D/G114E/P115A/M116V/R125K/T199I/V234M): T1 sequence (P04440 30-258 F64L/A65V/A84E/G113D/G114E/P115A/M116V/R125K/T199I/V234M) with L8V, F9Y, G11L, L35F, E55D, A56E, E57D, I65L

HLA-DR DRB1*04:01 = HLA-DR DRB1*04:01 (Homo sapiens, UniProt P01903+P01911, A100K/A169T/F76Y/I96L/K127E/L162R/M171V/N62H/P40V/Q125Y/R42H/S133A/S149N/S66Y/V115G/V209L/W38E); assay type: binding
HLA-DR DRB1*04:05 = HLA-DR DRB1*04:05 (Homo sapiens, UniProt P01903+P01911, A100R/A169T/D86S/F76Y/I96L/K127E/L162R/M171V/N62H/P40V/Q125Y/R42H/S133A/S149N/S66Y/V115G/V209L/W38E); assay type: binding
HLA-DR DRB1*16:02 = HLA-DR DRB1*16:02 (Homo sapiens, UniProt P01903+P01911, A100R/F76Y/I96L/Q99D/V115G); assay type: binding
HLA-DR DRB1*11:01 = HLA-DR DRB1*11:01 (Homo sapiens, UniProt P01903+P01911, A100R/A169T/A87E/I96F/K41T/L162R/M171V/P40S/Q125H/Q178H/Q39Y/Q99D/R42S/S66Y/T262R/V115G/W38E); assay type: binding
HLA-DR DRB1*08:02 = HLA-DR DRB1*08:02 (Homo sapiens, UniProt P01903+P01911, A100R/A103L/A169T/F76Y/H45Y/I96F/K41T/L162R/M171V/P40S/Q125H/Q178H/Q39Y/Q99D/R218S/R42G/S66Y/V115G/W38E); assay type: binding
HLA-DR DRB4*01:01 = HLA-DR DRB4*01:01 (Homo sapiens, UniProt P01903+P13762, G164S); assay type: binding; details: read-out: Binding capacity/IC50 (nM) DRB4*01:01
HLA-DR DRB5*01:01 = HLA-DR DRB5*01:01 (Homo sapiens, UniProt P01903+Q30154); assay type: binding; details: read-out: Binding capacity/IC50 (nM) DRB5*01:01
[4] = target: HLA-DP DPA1*02:01/DPB1*01:01 (Homo sapiens, UniProt P04440+P20036, F191V/F38Y/F64Y/G113D/G114E/K142R/L158P/L37V/M105V/M116V/M62Q/P115A/Q81R/R125K/R223Q/T114A/T199I/T259P)
[5] = read-out: Binding capacity/IC50 (nM) DPA1*02:01 DPB1*05:01
[6] = read-out: Binding capacity/IC50 (nM) DRB1*13:02
[7] = read-out: Binding capacity/IC50 (nM) DPA1*01:03 DPB1*03:01
[8] = read-out: Binding capacity/IC50 (nM) DRB1*04:01
[9] = read-out: Binding capacity/IC50 (nM) DRB1*04:05
[10] = read-out: Binding capacity/IC50 (nM) DRB1*16:02
[11] = read-out: Binding capacity/IC50 (nM) DRB1*11:01
[12] = read-out: Binding capacity/IC50 (nM) DRB1*08:02

SMILES | IC50 [1, 5] [nM] | IC50 (HLA-DR DRB1*13:02; [6]) [nM] | IC50 [2, 7] [nM] | IC50 [3] [nM] | IC50 (HLA-DR DRB1*04:01; [8]) [nM] | IC50 (HLA-DR DRB1*04:05; [9]) [nM] | IC50 (HLA-DR DRB1*16:02; [10]) [nM] | IC50 (HLA-DR DRB1*11:01; [11]) [nM] | IC50 (HLA-DR DRB1*08:02; [12]) [nM] | IC50 (HLA-DR DRB4*01:01) [nM] | IC50 (HLA-DR DRB5*01:01) [nM] | IC50 [4] [µM] | IC50 (HLA-DR DRB1*13:02) [nM] | IC50 (HLA-DR DRB1*04:01) [nM] | IC50 (HLA-DR DRB1*04:05) [nM] | IC50 (HLA-DR DRB1*16:02) [nM] | IC50 (HLA-DR DRB1*11:01) [nM] | IC50 (HLA-DR DRB1*08:02) [nM] | IC50 [2] [nM] | IC50 [1] [nM]
CC[C@H](C)[C@H](NC(=O)[C@H](CCCCN)NC(=O)[C@H](CCC(N)=O)NC(=O)[C@@H](NC(=O)[C@H](C)NC(=O)[C@H](CCC(=O)O)NC(=O)[C@@H](N)[C@@H](C)O)C(C)C)C(=O)N[C@@H](C)C(=O)N[C@H](C(=O)N[C@@H](CCC(=O)O)C(=O)N[C@@H](CO)C(=O)N[C@H](C(=O)N[C@H](C(=O)N[C@H](C(=O)N[C@@H](Cc1c[nH]c2ccccc12)C(=O)NCC(=O)N[C@@H](CCCCN)C(=O)N[C@H](C(=O)N1CCC[C@H]1C(=O)N[C@@H](CCCCN)C(=O)N[C@@H](Cc1ccccc1)C(=O)N[C@@H](CCCNC(=N)N)C(=O)N[C@@H](CC(C)C)C(N)=O)[C@@H](C)O)[C@@H](C)CC)C(C)C)[C@@H](C)CC)[C@@H](C)O [RT(369-391)] | 154 | 1290 | 5360 | 972 | 146 | 2630 | 2130 | 329 | 24 | 20 | 68 | 1.54 | – | – | – | – | – | – | – | –
CC(C)C[C@H](NC(=O)[C@H](CCCCN)NC(=O)[C@@H](NC(=O)[C@H](CC(C)C)NC(=O)[C@@H]1CCCN1C(=O)[C@@H]1CCCN1C(=O)[C@@H](NC(=O)[C@H](CC(N)=O)NC(=O)[C@@H](NC(=O)[C@H](Cc1ccccc1)NC(=O)[C@H](CCC(=O)O)NC(=O)[C@H](Cc1c[nH]c2ccccc12)NC(=O)[C@@H](N)CCC(=O)O)C(C)C)[C@@H](C)O)C(C)C)C(=O)N[C@@H](Cc1c[nH]c2ccccc12)C(=O)N[C@@H](Cc1ccc(O)cc1)C(N)=O [RT(413-427)] | 2820 | – | 5710 | 1070 | – | – | – | – | – | 1420 | 14 | 0.101 | 2220 | 42 | 78 | 10 | 312 | 58 | – | –
CC[C@H](C)[C@H](NC(=O)[C@@H]1CCCN1C(=O)[C@H](CCC(=O)O)NC(=O)[C@@H](N)CCCCN)C(=O)N[C@H](C(=O)NCC(=O)N[C@@H](C)C(=O)N[C@@H](CCC(=O)O)C(=O)N[C@H](C(=O)N[C@@H](Cc1ccccc1)C(=O)N[C@@H](Cc1ccc(O)cc1)C(=O)N[C@H](C(=O)N[C@@H](CC(=O)O)C(=O)NCC(=O)N[C@@H](C)C(N)=O)C(C)C)[C@@H](C)O)C(C)C [RT(431-445)] | > 30000 | 266 | – | 26100 | 23 | 50 | 80 | 3190 | 19 | 243 | 148 | 0.205 | – | – | – | – | – | – | 28400 | –
CC[C@H](C)[C@H](NC(=O)[C@@H](NC(=O)[C@H](CCCCN)NC(=O)[C@@H](NC(=O)[C@@H]1CCCN1C(=O)[C@H](Cc1c[nH]c2ccccc12)NC(=O)[C@H](CCCNC(=N)N)NC(=O)CNC(=O)[C@H](C)NC(=O)[C@H](CC(C)C)NC(=O)[C@H](CCCCN)NC(=O)[C@H](CC(C)C)NC(=O)[C@@H](NC(=O)[C@H](Cc1ccccc1)NC(=O)[C@H](Cc1ccc(O)cc1)NC(=O)[C@H](C)NC(=O)[C@@H](NC(=O)[C@@H](N)CCC(=O)O)[C@@H](C)O)[C@@H](C)CC)C(C)C)C(C)C)C(N)=O [integrase(96-113)] | – | 4410 | 1020 | 857 | 1770 | 629 | 106 | 27 | 365 | 3080 | 4.4 | 0.792 | – | – | – | – | – | – | – | 621
CC[C@H](C)[C@H](NC(=O)[C@H](CCCCN)NC(=O)[C@@H](NC(=O)[C@@H](NC(=O)[C@@H](N)CCC(N)=O)[C@@H](C)CC)[C@@H](C)O)C(=O)N[C@@H](CCC(N)=O)C(=O)N[C@@H](CC(N)=O)C(=O)N[C@@H](Cc1ccccc1)C(=O)N[C@@H](CCCNC(=N)N)C(=O)N[C@H](C(=O)N[C@@H](Cc1ccc(O)cc1)C(=O)N[C@@H](Cc1ccc(O)cc1)C(=O)N[C@@H](CCCNC(=N)N)C(=O)N[C@@H](CC(=O)O)C(=O)N[C@@H](CO)C(=O)N[C@@H](CCCNC(=N)N)C(=O)N[C@@H](CC(=O)O)C(=O)N1CCC[C@H]1C(=O)N[C@H](C(=O)N[C@@H](Cc1c[nH]c2ccccc12)C(N)=O)[C@@H](C)CC)C(C)C [integrase(216-235)] | 7.6 | 1930 | 83 | 39 | 203 | 179 | 7.1 | 288 | 8.8 | 2080 | 9.5 | 0.4 | – | – | – | – | – | – | – | –
